Reference: ChEMBL document CHEMBL1201862, “PubChem BioAssay data set” (2004)
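96-well plates; 48 h exposure; 5 concentrations. Endpoints by linear interpolation between flanking doses. Not reached: highest tested concentration assigned. GI50: concentration for 50% inhibition of growth.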 Active and inactive are the calls of the source. Rule as the data show it: active = GI50 up to about 1.1 µM and inactive = higher.

Legend:
Assay in all cases: inhibition of tumour cell growth, NCI panel, 48 h
[1] = test system: SF-268
[2] = test system: UACC-62
[3] = test system: COLO 205
[4] = test system: SNB-19
[5] = test system: 786-0
[6] = test system: HCT-116
[7] = test system: K562
[8] = test system: ACHN
[9] = test system: T47D
[10] = test system: OVCAR-3
[11] = test system: SNB-75
[12] = test system: MDA-MB-231
[13] = test system: OVCAR-4
[14] = test system: HOP-62
[15] = test system: IGROV-1
[16] = test system: HOP-92
[17] = test system: UO-31
[18] = test system: KM12
[19] = test system: NCI-H522

## CSc1ncc2c(C#N)c3sc4ccccc4n3c(=O)c2n1
[1]
  GI50: 16.1 µM (inactive)
[2]
  GI50: > 100 µM (inactive)
[3]
  GI50: > 100 µM (inactive)
[4]
  GI50: 37.8 µM (inactive)
[5]
  GI50: 41.8 µM (inactive)
[6]
  GI50: > 100 µM (inactive)
[7]
  GI50: > 100 µM (inactive)
[8]
  GI50: > 100 µM (inactive)
[9]
  GI50: 91.8 µM (inactive)
[10]
  GI50: > 100 µM (inactive)
[11]
  GI50: 43.5 µM (inactive)
[12]
  GI50: 41.1 µM (inactive)
[13]
  GI50: 45.8 µM (inactive)
[14]
  GI50: 30.4 µM (inactive)
[15]
  GI50: > 100 µM (inactive)
[16]
  GI50: > 100 µM (inactive)
[17]
  GI50: > 100 µM (inactive)
[18]
  GI50: 54.2 µM (inactive)

## CC(=O)OCC1OC(c2nnc(C)o2)=CC(OC(C)=O)C1OC(C)=O (configuration not stated)
[1]
  GI50: > 100 µM (inactive)
[3]
  GI50: > 100 µM (inactive)
[4]
  GI50: > 100 µM (inactive)
[5]
  GI50: > 100 µM (inactive)
[6]
  GI50: > 100 µM (inactive)
[7]
  GI50: > 100 µM (inactive)
[8]
  GI50: > 100 µM (inactive)
[10]
  GI50: > 100 µM (inactive)
[11]
  GI50: > 100 µM (inactive)
[12]
  GI50: > 100 µM (inactive)
[13]
  GI50: > 100 µM (inactive)
[14]
  GI50: > 100 µM (inactive)
[15]
  GI50: > 100 µM (inactive)
[19]
  GI50: > 100 µM (inactive)
[17]
  GI50: > 100 µM (inactive)
[18]
  GI50: > 100 µM (inactive)

## CC1=C(C)C(=O)C2=C(OCCO2)C1=O
[1]
  GI50: 27.1 µM (inactive)
[3]
  GI50: 17.6 µM (inactive)
[4]
  GI50: 17.3 µM (inactive)
[5]
  GI50: 22.5 µM (inactive)
[6]
  GI50: 3.73 µM (inactive)
[8]
  GI50: 25.2 µM (inactive)
[9]
  GI50: 2.39 µM (inactive)
[10]
  GI50: 10.3 µM (inactive)
[12]
  GI50: 4.47 µM (inactive)
[14]
  GI50: 17.7 µM (inactive)
[15]
  GI50: 2.11 µM (inactive)
[16]
  GI50: 2.75 µM (inactive)
[17]
  GI50: 10.1 µM (inactive)
[18]
  GI50: 17.3 µM (inactive)

## N#Cc1nnc2ccccc2c1N
[1]
  GI50: > 100 µM (inactive)
[2]
  GI50: > 100 µM (inactive)
[3]
  GI50: > 100 µM (inactive)
[4]
  GI50: > 100 µM (inactive)
[5]
  GI50: > 100 µM (inactive)
[6]
  GI50: > 100 µM (inactive)
[7]
  GI50: > 100 µM (inactive)
[8]
  GI50: > 100 µM (inactive)
[9]
  GI50: > 100 µM (inactive)
[10]
  GI50: 2.26 µM (inactive)
[12]
  GI50: > 100 µM (inactive)
[13]
  GI50: > 100 µM (inactive)
[14]
  GI50: > 100 µM (inactive)
[15]
  GI50: > 100 µM (inactive)
[16]
  GI50: > 100 µM (inactive)
[17]
  GI50: > 100 µM (inactive)
[18]
  GI50: > 100 µM (inactive)

## COc1ccc(C(=O)c2sc(N(C)C)nc2-c2ccccc2)cc1
[1]
  GI50: 40.1 µM (inactive)
[2]
  GI50: 30.8 µM (inactive)
[3]
  GI50: 33.7 µM (inactive)
[4]
  GI50: 64.3 µM (inactive)
[5]
  GI50: 34.4 µM (inactive)
[6]
  GI50: 31 µM (inactive)
[7]
  GI50: 35.4 µM (inactive)
[8]
  GI50: 33.7 µM (inactive)
[9]
  GI50: 33.6 µM (inactive)
[10]
  GI50: 16.8 µM (inactive)
[11]
  GI50: 35.2 µM (inactive)
[12]
  GI50: 33.7 µM (inactive)
[13]
  GI50: 23.4 µM (inactive)
[14]
  GI50: 20.6 µM (inactive)
[15]
  GI50: 42.6 µM (inactive)
[16]
  GI50: 91.6 µM (inactive)
[17]
  GI50: 32.1 µM (inactive)
[18]
  GI50: 15.8 µM (inactive)

## CC(=O)O[C@H]1CC[C@@]2(C)C(=CC[C@@H]3C2CC[C@]2(C)Nc4oncc4CC32)C1 (some centres not stated)
[2]
  GI50: 27.5 µM (inactive)
[5]
  GI50: > 100 µM (inactive)
[6]
  GI50: 15.5 µM (inactive)
[7]
  GI50: 6.68 µM (inactive)
[8]
  GI50: 25.6 µM (inactive)
[10]
  GI50: 16.3 µM (inactive)
[11]
  GI50: 24.2 µM (inactive)
[13]
  GI50: 16.8 µM (inactive)
[14]
  GI50: 49.2 µM (inactive)
[15]
  GI50: 28.1 µM (inactive)
[17]
  GI50: 18.3 µM (inactive)
[18]
  GI50: 22.6 µM (inactive)

## COc1cccc2c1OC(c1ccc(C#N)cc1)C([N+](=O)[O-])=C2 (configuration not stated)
[1]
  GI50: 4.12 µM (inactive)
[2]
  GI50: 1.6 µM (inactive)
[3]
  GI50: 1.74 µM (inactive)
[4]
  GI50: 6.46 µM (inactive)
[5]
  GI50: 0.482 µM (active)
[6]
  GI50: 1.48 µM (inactive)
[7]
  GI50: 1.21 µM (inactive)
[8]
  GI50: 1.77 µM (inactive)
[10]
  GI50: 2.02 µM (inactive)
[11]
  GI50: 2.47 µM (inactive)
[12]
  GI50: 1.56 µM (inactive)
[13]
  GI50: 1.68 µM (inactive)
[14]
  GI50: 3.21 µM (inactive)
[15]
  GI50: 1.92 µM (inactive)
[16]
  GI50: 1.62 µM (inactive)
[19]
  GI50: 0.214 µM (active)
[17]
  GI50: 1.64 µM (inactive)

## O=C(NCc1ccc2ccc3cccnc3c2n1)c1ccc[n+](Cc2ccccc2)c1
[1]
  GI50: > 100 µM (inactive)
[2]
  GI50: > 100 µM (inactive)
[3]
  GI50: > 100 µM (inactive)
[4]
  GI50: > 100 µM (inactive)
[5]
  GI50: > 100 µM (inactive)
[6]
  GI50: > 100 µM (inactive)
[7]
  GI50: 83.8 µM (inactive)
[8]
  GI50: > 100 µM (inactive)
[10]
  GI50: 55.6 µM (inactive)
[11]
  GI50: > 100 µM (inactive)
[13]
  GI50: > 100 µM (inactive)
[14]
  GI50: > 100 µM (inactive)
[15]
  GI50: > 100 µM (inactive)
[16]
  GI50: 37.7 µM (inactive)
[19]
  GI50: > 100 µM (inactive)
[17]
  GI50: > 100 µM (inactive)
[18]
  GI50: 91.4 µM (inactive)

## O=C(CNc1c(Cl)cccc1Cl)NC1C=Cc2ccc(S(=O)(=O)Nc3c(Cl)cccc3Cl)cc2C1=O (configuration not stated)
[1]
  GI50: 48.3 µM (inactive)
[2]
  GI50: 79.6 µM (inactive)
[3]
  GI50: > 100 µM (inactive)
[4]
  GI50: > 100 µM (inactive)
[5]
  GI50: > 100 µM (inactive)
[6]
  GI50: > 100 µM (inactive)
[7]
  GI50: > 100 µM (inactive)
[8]
  GI50: > 100 µM (inactive)
[10]
  GI50: 42.5 µM (inactive)
[11]
  GI50: 16.7 µM (inactive)
[12]
  GI50: 51.3 µM (inactive)
[13]
  GI50: > 100 µM (inactive)
[14]
  GI50: 41.4 µM (inactive)
[15]
  GI50: 2.4 µM (inactive)
[16]
  GI50: 18.5 µM (inactive)
[19]
  GI50: 30.5 µM (inactive)
[17]
  GI50: 26.9 µM (inactive)
[18]
  GI50: 35.9 µM (inactive)
